From patent US20180312493A1, “Antibiotic Compounds, Pharmaceutical Formulations Thereof And Methods And Uses Therefor” (Simon Fraser University, priority 2015, published 2018)
Values after ≈ are worked out from the molar mass of the structure shown. Read-outs that look alike come from different tables or passages of the source.

How the values were obtained:
K. pneumoniae (C238) = test: In vitro susceptibility, broth microdilution (MIC); assay type: cell-based; conditions: Klebsiella pneumoniae; K. pneumoniae (C238); read-out: Antimicrobial activity (MIC) K. pneumoniae
In short: (§1)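 CLSI 2-fold serial broth microdilution; K. pneumoniae C238 grown in L-broth, S. aureus ATCC 29213 in Mueller Hinton broth, plates incubated 18–24 h at 37 °C. MIC taken as lowest concentration giving complete growth inhibition by OD600 versus compound-free wells, background-subtracted.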

S. aureus (ATCC29213) = test: In vitro susceptibility, broth microdilution (MIC); assay type: cell-based; conditions: Staphylococcus aureus
In short: as §1

MRSA Pyk = target: T1, MRSA Pyk (Staphylococcus aureus, UniProt Q6GG09); test: MRSA pyruvate kinase (PK) activity, continuous LDH-coupled assay; assay type: biochemical, methicillin resistant S. aureus (MRSA252)
T1 construct: made in house; host or cells: E. coli BL-21 (DE3)
T1 sequence (Q6GG09 whole entry): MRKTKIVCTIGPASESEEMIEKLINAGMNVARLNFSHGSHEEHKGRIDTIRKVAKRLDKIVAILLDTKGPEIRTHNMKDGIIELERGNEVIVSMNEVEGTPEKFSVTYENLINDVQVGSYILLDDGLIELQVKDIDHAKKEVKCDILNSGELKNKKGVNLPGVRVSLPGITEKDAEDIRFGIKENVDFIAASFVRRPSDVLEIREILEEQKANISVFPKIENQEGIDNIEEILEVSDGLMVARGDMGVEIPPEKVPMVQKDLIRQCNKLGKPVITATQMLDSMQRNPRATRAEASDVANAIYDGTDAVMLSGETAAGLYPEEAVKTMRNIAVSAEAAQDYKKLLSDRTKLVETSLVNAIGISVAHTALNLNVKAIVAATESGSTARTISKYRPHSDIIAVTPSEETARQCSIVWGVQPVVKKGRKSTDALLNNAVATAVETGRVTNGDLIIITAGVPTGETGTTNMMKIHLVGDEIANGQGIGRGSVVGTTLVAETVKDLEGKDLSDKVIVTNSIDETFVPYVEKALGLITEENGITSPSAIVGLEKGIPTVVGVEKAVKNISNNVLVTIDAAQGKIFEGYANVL
In short: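 Activity monitored continuously as absorbance change at 340 nm from NADH oxidation via coupled lactate dehydrogenase, reactions started with 15 nM recombinant His-tagged PK (MRSA or human isoform) and run at 30° C for up to 5 min. Ki derived by varying inhibitor (0-400 nM) and PEP (2-20 mM) at 2 mM ADP; IC50 by four-parameter fitting.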

MRSA (ATCC BAA-1762) = test: In vitro susceptibility, broth microdilution (MIC); assay type: cell-based, methicillin resistant S. aureus; conditions: Staphylococcus aureus, read-out: Antimicrobial activity (MIC) MRSA ATCC BAA1762
From the text: (§2) Epidemic methicillin resistant S. aureus (MRSA) strain sequenced at the Sanger Centre (MRSA252, NRS71) was obtained from NARSA (Network on Antimicrobial Resistance in S. aureus). Methicillin sensitive S. aureus (ATCC 29213 and 25923), methicillin resistant S. aureus (ATCC BAA-1762), and Salmonella typhimurium (ATCC BAA-185) were obtained from ATCC, The Global Bioresource Center. Acinetobacter baumannii (ATCC 19606 and ATCC 17978), Klebsiella pneumonia (C238), vancomycin resistant Enterococci #2 (2010A) (VRE#2), MRSA (USA400, MW2) and Pseudomonas aeruginosa (PA0-1) were obtained from the laboratory of Dr B. B. Finlay at the University of British Columbia (Vancouver, Canada).
(§3) The antimicrobial activities of PK inhibitor candidates were determined using the 96-well microtiter standard 2-fold serial broth microdilution method as described by CLSI (formerly NCCLS) with the various gram-positive and gram-negative bacteria species mentioned above. Bacteria from a single colony were grown, overnight in either BHI Broth (VRE), mueller hinton broth (S. aureus 29213; MRSA USA400, A. baumannii 19606, MRSA BAA-1762) or L-broth (P. aeruginosa, S. typhimurium, K. pneumonia and A. baumannii 17978). Each compound was prepared in DMSO with 2-fold serial dilutions to give a final concentration of, 0.031 to 64 μg/ml. 10 μl of the compound solution was then added, in duplicate, to either, 190 μl of cation adjusted mueller hinton broth (CAMHB) or 190 μl CAMHB containing ˜2.5×10^5 CFU/ml of bacteria (final compound concentration 0.031 to 64 μg/ml). Culture plates were incubated for 18-24 h at 37° C., and optical density at 600 nm (OD600) was measured using a Benchmark Plus™ microplate spectrophotometer (Bio-Rad™). The absorbance control values for the series containing CAMHB and inhibitor were subtracted as background from the corresponding infected wells. Minimal inhibitory concentration (MIC) was defined as the lowest concentration of test compound leading to complete inhibition of cell growth in relation to compound-free control wells as determined by optical density. Vancomycin, methicillin and ciprofloxicin were used as reference compounds. All assays were run in triplicate or duplicate. Experiments were replicated at least twice to verify reproducibility using the above conditions.

VRE#2 (2010A) = test: In vitro susceptibility, broth microdilution (MIC); assay type: cell-based, vancomycin resistant Enterococci; conditions: read-out: Antimicrobial activity (MIC) VRE#2
From the text: as §2, §3

[1] = tested on: A. baumannii (ATCC 19606); test: In vitro susceptibility, broth microdilution (MIC); assay type: cell-based; conditions: Acinetobacter baumannii, ATCC19606; A. baumannii ATCC 19606 (values without asterisk); read-out: Antimicrobial activity (MIC) A. baumannii
From the text: as §2, §3

[2] = S. aureus ATCC29213, 18-24 h, 37 C, read-out: Antimicrobial activity (MIC) S. aureus ATCC29213

SMILES	MIC (K. pneumoniae (C238)) [µg/mL]	MIC (S. aureus (ATCC29213); [2]) [µg/mL]	IC50 (MRSA Pyk) [nM]	further results
COc1cc2[nH]c(-c3cc4ccc(Br)cc4[nH]3)cc2cc1Cl [Compound 140, 6′-Bromo-5-chloro-6-methoxy-1H,1′H-2,2′-biindole]	> 64	> 64	–	–
O=C(NCCCN1CCOCC1)c1c(/C=C/c2ccc(Cl)cc2)[nH]c2cc(Br)ccc12 [Compound 48, (E)-6-Bromo-2-(4-chlorostyryl)-N-(3-morpholinopropyl)-1H-indole-3-carboxamide]	> 64	> 64	–	–
FC(F)(F)c1ccc2sc(/C=C/c3ccc(Cl)cc3)nc2c1 [Compound 115, (E)-2-(4-chlorostyryl)-5-(trifluoromethyl)benzo[d]thiazole]	> 64	> 64	–	–
COCCNC(=O)CCCC(=O)c1c(-c2cc3cc(Cl)ccc3[nH]2)[nH]c2cc(Br)ccc12 [Compound 103, 5-(6-bromo-5′-chloro-1H,1′H-[2,2′-biindol]-3-yl)-N-(2-methoxyethyl)-5-oxopentanamide]	> 64	> 64	< 100	–
Cc1nc2c(cc1-c1ccc(Cl)cc1)[nH]c1cc(Br)ccc12 [Compound 113, 7-bromo-3-(4-chlorophenyl)-2-methyl-5H-pyrido[3,2-b]indole]	> 64	> 64	< 100	–
O=C(Cc1ccc(Cl)cc1)Nc1nc2ccc(Br)cc2s1 [Compound 109, N-(6-bromobenzo[d]thiazol-2-yl)-2-(4-chlorophenyl)acetamide]	> 64	> 64	–	–
CN(C)CCc1c(-c2nc3ccc(Cl)cc3o2)[nH]c2cc(Br)ccc12 [Compound 203, 2-(6-Bromo-2-(6-chlorobenzo[d]oxazol-2-yl)-1H-indol-3-yl)-N,N-dimethylethan-1-amine]	–	–	< 100	MIC (MRSA (ATCC BAA-1762)): 8 µg/mL (≈ 19.1 µM); MIC (S. aureus (ATCC29213); ATCC29213, read-out: Antimicrobial activity (MIC) S. aureus ATCC29213): 8 µg/mL (≈ 19.1 µM); MIC (VRE#2 (2010A)): 16 µg/mL (≈ 38.2 µM)
CN(C)CCn1c(-c2ccc(Cl)cc2)nc2[nH]c3cc(Br)ccc3c2c1=O [Compound 111, 7-bromo-2-(4-chlorophenyl)-3-(2-(dimethylamino)ethyl)-3H-pyrimido[4,5-b]indol-4(9H)-one]	> 64	> 64	–	–
COCCC1CCCN1CCNC(=O)c1c(-c2cc3cc(Cl)ccc3[nH]2)[nH]c2cc(Br)ccc12 (stereo not drawn) [Compound 123, 6-Bromo-5′-chloro-N-(2-(2-(2-methoxyethyl)pyrrolidin-1-yl)ethyl)-1H,1′H-[2,2′-biindole]-3-carboxamide]	–	8 (≈ 14.7 µM)	< 100	MIC (MRSA (ATCC BAA-1762); MRSA ATCC BAA-1762): 8 µg/mL (≈ 14.7 µM); MIC (VRE#2 (2010A); VRE#2 (2010A)): 8 µg/mL (≈ 14.7 µM)
CNC(=O)C(O)c1c(/C=C/c2ccc(Cl)cc2)[nH]c2cc(Br)ccc12 (stereo not drawn) [Compound 90, (E)-2-(6-bromo-2-(4-chlorostyryl)-1H-indol-3-yl)-2-hydroxy-N-methylacetamide]	> 64	> 64	100 to 1000	–
O=C(CCCC(=O)c1c(-c2cc3cc(Cl)ccc3[nH]2)[nH]c2cc(Br)ccc12)NCCO [Compound 104, 5-(6-bromo-5′-chloro-1H,1′H-[2,2′-biindol]-3-yl)-N-(2-hydroxyethyl)-5-oxopentanamide]	> 64	> 64	< 100	–
CC(C)(C)OC(=O)N1CCN(C(=O)c2c(-c3cc4cc(Cl)ccc4[nH]3)[nH]c3cc(Br)ccc23)C(C(=O)O)C1 (stereo not drawn) [Compound 224, 1-(6-bromo-5′-chloro-1H,1′H-[2,2′-biindole]-3-carbonyl)-4-(tert-butoxycarbonyl)piperazine-2-carboxylic Acid]	–	32 (≈ 53.2 µM)	< 100	MIC (MRSA (ATCC BAA-1762); MRSA ATCC BAA-1762): 32 µg/mL (≈ 53.2 µM); MIC (VRE#2 (2010A); VRE#2 (2010A)): 32 µg/mL (≈ 53.2 µM)
CN(Cc1ccccc1)c1c(CCc2ccc(Cl)cc2)[nH]c2cc(Br)ccc12 [Compound 98, N-benzyl-6-bromo-2-(4-chlorophenethyl)-N-methyl-1H-indol-3-amine]	> 64	32 (≈ 70.5 µM)	100 to 1000	–
O=C(NCCC[n+]1ccccc1)c1c(-c2cc3cc(Cl)ccc3[nH]2)[nH]c2cc(Br)ccc12 [Compound 144, 1-(3-(6-bromo-5′-chloro-1H,1′H-[2,2′-biindole]-3-carboxamido)propyl)pyridin-1-ium]	–	8	< 100	MIC (MRSA (ATCC BAA-1762); MRSA ATCC BAA-1762): 16 µg/mL; MIC (VRE#2 (2010A); VRE#2 (2010A)): 16 µg/mL
O=C(NCCc1ccccn1)C(=O)c1c(/C=C/c2ccc(Cl)cc2)[nH]c2cc(Br)ccc12 [Compound 88, (E)-2-(6-bromo-2-(4-chlorostyryl)-1H-indol-3-yl)-2-oxo-N-(2-(pyridin-2-yl)ethyl)acetamide]	> 64	> 64	100 to 1000	–
O=C(Nc1ccccc1)Nc1nc2cc(Br)ccc2s1 [Compound 99, 1-(5-bromobenzo[d]thiazol-2-yl)-3-phenylurea]	8 (≈ 23 µM)	1 (≈ 2.87 µM)	–	–
CNC(=O)C(=O)c1c(CCc2ccc(Cl)cc2)[nH]c2cc(Br)ccc12 [Compound 89, 2-(6-bromo-2-(4-chlorophenethyl)-1H-indol-3-yl)-N-methyl-2-oxoacetamide]	> 64	> 64	> 1000	–
O=C(NCCCCN1CCOCC1)c1c(/C=C/c2ccc(Cl)cc2)[nH]c2cc(Br)ccc12 [Compound 45, (E)-6-Bromo-2-(4-chlorostyryl)-N-(4-morpholinobutyl)-1H-indole-3-carboxamide]	32 (≈ 61.9 µM)	> 64	< 100	–
COCCN1CCN(CCNC(=O)c2c(-c3cc4cc(Cl)ccc4[nH]3)[nH]c3cc(Br)ccc23)CC1 [Compound 129, 6-bromo-5′-chloro-N-(2-(4-(2-methoxyethyl)piperazin-1-yl)ethyl)-1H,1′H-2,2′-biindole-3-carboxamide]	–	16 (≈ 28.6 µM)	< 100	MIC (MRSA (ATCC BAA-1762); MRSA ATCC BAA-1762): 16 µg/mL (≈ 28.6 µM); MIC (VRE#2 (2010A); VRE#2 (2010A)): 16 µg/mL (≈ 28.6 µM)
C[C@@H]1CN(CCNC(=O)c2c(-c3cc4cc(Cl)ccc4[nH]3)[nH]c3cc(Br)ccc23)[C@@H](C)CN1C [Compound 122, 6-Bromo-5′-chloro-N-(2-((2S,5R)-2,4,5-trimethylpiperazin-1-yl)ethyl)-1H,1′H-[2,2′-biindole]-3-carboxamide]	–	8 (≈ 14.7 µM)	< 100	MIC (MRSA (ATCC BAA-1762); MRSA ATCC BAA-1762): 8 µg/mL (≈ 14.7 µM); MIC (VRE#2 (2010A); VRE#2 (2010A)): 8 µg/mL (≈ 14.7 µM)
NC(=O)Cn1c(-c2cc3ccc(Br)cc3[nH]2)nc2cc(Cl)c(Cl)cc21 [Compound 215, 2-(2-(6-Bromo-1H-indol-2-yl)-5,6-dichloro-1H-benzo[d]imidazol-1-yl)acetamide]	–	> 64	–	MIC [1]: > 64 µg/mL
O=C(CCCC(=O)c1c(-c2cc3cc(Cl)ccc3[nH]2)[nH]c2cc(Br)ccc12)Nc1ncn[nH]1 [Compound 105, 5-(6-bromo-5′-chloro-1H,1′H-[2,2′-biindol]-3-yl)-5-oxo-N-(1H-1,2,4-triazol-5-yl)pentanamide]	> 64	> 64	< 100	–
CNC(=O)Cc1c(CCc2ccc(Cl)cc2)[nH]c2cc(Br)ccc12 [Compound 91, 2-(6-Bromo-2-(4-chlorophenethyl)-1H-indol-3-yl)-N-methylacetamide]	> 64	> 64	–	–
O=C(Nc1ccccc1)Nc1nc2ccc(Br)cc2s1 [Compound 100, 1-(6-bromobenzo[d]thiazol-2-yl)-3-phenylurea]	> 64	> 64	–	–
